Assays:
[1] = system: rabbit serum obtained by immunizing a rabbit with the SARS-CoV strain Frankfurt 1; assay type: binding; design: Binding of a rabbit serum to linear peptides / Binding of a rabbit serum to looped peptides / Rabbit serum linear peptides / Rabbit serum looped peptides / Binding of a rabbit serum to linear peptides of protein N of SARS-CoV Urbani (Rabbit serum linear peptides) / Binding of a rabbit serum to looped/cyclic peptides of protein N of SARS-CoV Urbani (Rabbit serum looped peptides): unit not given here
[2] = system: control sera (pooled serum of ten healthy LUMC hospital workers; commercial negative donor pooled serum from the Dutch bloodbank); assay type: binding, human; design: Binding of Control serum LUMC to linear peptides / Binding of Control serum Blood-bank to linear peptides / Binding of Control serum LUMC to looped peptides / Binding of Control Serum Blood-Bank to Looped peptides / Binding of Control serum LUMC to linear peptides of the protein M of SARS-CoV Urbani / Binding of Control serum Blood-bank to linear peptides of the protein M of SARS-CoV Urbani / Binding of Control serum LUMC to looped peptides of the protein M of SARS-CoV Urbani / Binding of Control Serum Blood-Bank to Looped peptides of the protein M of SARS-CoV Urbani: unit not given here
[3] = system: recombinant human anti-SARS-CoV antibody 03-018; assay type: binding; design: Binding of antibody 03-018 to linear peptides of the N protein of SARS-CoV Urbani / Binding of antibody 03-018 to looped/cyclic peptides of the N protein of SARS-CoV Urbani: unit not given here
[4] = system: antibodies in sera from SARS patients (sera 1a, 1b, 2, 6, 37, 62, London, SARS-yellow, SARS-green); assay type: binding, human; design: Binding of serum 6 to linear peptides of protein X1 of SARS-CoV Urbani / Binding of serum 37 to linear peptides of protein X1 of SARS-CoV Urbani / Binding of serum 6 to looped/cyclic peptide (PEPSCAN-ELISA) / Binding of serum 37 to looped/cyclic peptide (PEPSCAN-ELISA) / Binding of serum 37 to looped/cyclic peptides of protein X1 of SARS-CoV Urbani / Binding of serum 6 to linear peptides of protein X2 / Binding of serum 37 to linear peptides of protein X2 / Binding of serum 37 to looped/cyclic peptides of protein X2 of SARS-CoV Urbani / Binding of serum 6 to linear peptides of protein M of SARS-CoV Urbani / Binding of serum 37 to linear peptides of protein M of SARS-CoV Urbani / Binding of serum 6 to looped/cyclic peptides of protein M of SARS-CoV Urbani / Binding of serum 37 to looped/cyclic peptides of protein M of SARS-CoV Urbani / Binding of serum 6 to linear peptides of protein X3 of SARS-CoV Urbani / Binding of serum 37 to linear peptides of protein X3 of SARS-CoV Urbani / Binding of serum 37 to looped/cyclic peptides of protein X3 of SARS-CoV Urbani / Binding of serum 6 to linear peptides of protein X4 of SARS-CoV Urbani / Binding of serum 37 to linear peptides of protein X4 of SARS-CoV Urbani / Binding of serum 37 to looped/cyclic peptides of protein X4 of SARS-CoV Urbani / Binding of serum 6 to linear peptides of protein X5 of SARS-CoV Urbani / Binding of serum 37 to linear peptides of protein X5 of SARS-CoV Urbani / Binding of serum 37 to looped/cyclic peptides of protein X5 of SARS-CoV Urbani / Binding of serum 6 to linear peptides of protein N of SARS-CoV Urbani / Binding of serum 37 to linear peptides of protein N of SARS-CoV Urbani / Binding of serum 6 to linear peptide (PEPSCAN-ELISA) / Binding of serum 1a to looped/cyclic peptides of protein N of SARS-CoV Urbani / Binding of serum 1b to looped/cyclic peptides of protein N of SARS-CoV Urbani / Binding of serum 2 to looped/cyclic peptides of protein N of SARS-CoV Urbani / Binding of serum 6 to looped/cyclic peptides of protein N of SARS-CoV Urbani / Binding of serum 37 to looped/cyclic peptides of protein N of SARS-CoV Urbani / Binding of serum 62 to looped/cyclic peptides of protein N of SARS-CoV Urbani / Binding of serum London to looped/cyclic peptides of protein N of SARS-CoV Urbani / Binding of serum SARS-green to looped/cyclic peptides of protein N of SARS-CoV Urbani: unit not given here

Row | Sequence | Binding of a rabbit serum to linear peptides of protein N of SARS-CoV Urbani (Rabbit serum linear peptides) [1] | Binding of a rabbit serum to looped/cyclic peptides of protein N of SARS-CoV Urbani (Rabbit serum looped peptides) [1] | Binding of Control Serum Blood-Bank to Looped peptides [2] | Binding of Control serum Blood-bank to linear peptides [2] | Binding of Control serum LUMC to linear peptides [2] | Binding of Control serum LUMC to looped peptides [2] | Binding of antibody 03-018 to linear peptides of the N protein of SARS-CoV Urbani [3] | Binding of antibody 03-018 to looped/cyclic peptides of the N protein of SARS-CoV Urbani [3] | Recognition of the peptide by the rabbit serum [1] | also measured
1 | NSPARMASGGGETAL | 0.3 | 0.3 | 0.3 | 0.9 | 0.7 | 0.4 | 0.1 | 0.2 |  | 
2 | PQFKDNVILLNKHID | 0.2 | 0.4 |  |  |  |  | 0.1 | 0.2 |  | Control Serum Blood-Bank Looped peptides [2]: 0.7; Control serum Blood-bank linear peptides [2]: 0.7; Control serum LUMC linear peptides [2]: 0.7; Control serum LUMC looped peptides [2]: 0.8
3 | PRQKRTATKQYNVTQ |  |  | 1.0 | 1.0 | 0.9 | 0.9 | 0.1 | 0.2 | recognized | 
4 | QFKDNVILLNKHIDA | 0.1 | 0.7 |  |  |  |  | 0.1 | 0.3 |  | Control Serum Blood-Bank Looped peptides [2]: 0.9; Control serum Blood-bank linear peptides [2]: 0.6; Control serum LUMC linear peptides [2]: 0.6; Control serum LUMC looped peptides [2]: 0.8
5 | QGTTLPKGFYAEGSR | 0.1 | 0.6 | 0.7 | 0.8 | 0.7 | 0.7 | 0.1 | 0.2 |  | 
6 | QKRTATKQYNVTQAF |  |  | 0.8 | 0.8 | 0.7 | 0.8 | 0.1 | 0.2 | recognized | 
7 | QLPQGTTLPKGFYAE | 0.2 | 0.4 | 0.6 | 0.9 | 0.7 | 0.6 | 0.1 | 0.2 |  | 
8 | STPGSSRGNSPARMA |  |  |  |  |  |  | 0.1 | 0.2 | recognized | Binding of serum 1a to linear peptide (PEPSCAN-ELISA) [4]: 0.5; Binding of serum 1a to looped/cyclic peptides of protein N of SARS-CoV Urbani [4]: 0.3; Binding of serum 1b to linear peptide (PEPSCAN-ELISA) [4]: 0.3; Binding of serum 1b to looped/cyclic peptides of protein N of SARS-CoV Urbani [4]: 0.2; Binding of serum 2 to linear peptide (PEPSCAN-ELISA) [4]: 0.4; Binding of serum 2 to looped/cyclic peptides of protein N of SARS-CoV Urbani [4]: 0.4; Binding of serum 6 to linear peptide (PEPSCAN-ELISA) [4]: 0.3; Binding of serum 6 to looped/cyclic peptides of protein N of SARS-CoV Urbani [4]: 0.4; Binding of serum 37 to linear peptide (PEPSCAN-ELISA) [4]: 0.7; Binding of serum 37 to looped/cyclic peptides of protein N of SARS-CoV Urbani [4]: 0.6; Binding of serum 62 to linear peptide (PEPSCAN-ELISA) [4]: 0.8; Binding of serum 62 to looped/cyclic peptides of protein N of SARS-CoV Urbani [4]: 0.5; Binding of serum London to linear peptide (PEPSCAN-ELISA) [4]: 0.5; Binding of serum London to looped/cyclic peptides of protein N of SARS-CoV Urbani [4]: 0.5; Binding of serum SARS-green to linear peptide (PEPSCAN-ELISA) [4]: 0.8; Binding of serum SARS-green to looped/cyclic peptides of protein N of SARS-CoV Urbani [4]: 0.2; Binding of serum SARS-yellow to linear peptide (PEPSCAN-ELISA) [4]: 0.7; Binding of serum SARS-yellow to looped/cyclic peptides of protein N of SARS-CoV Urbani [4]: 0.5

Reference: US20070128217A1 (priority 2003, published 2007)
